Source: the CheMixHub ionic liquid set
Values joined by “and” are separate entries in the source; they are usually repeats but may differ in a detail not shown here. Equal entries are not always repeated. ± gives the uncertainty stated by the source.

Assay: xn = mol fraction of the nth substance listed

CCCC[n+]1ccn(C)c1.[Cl-] + O + CCCCCCCCCCCCCCCC[N+](C)(C)C.[Br-]
electrical conductivity [S/m], 100 kPa
Details	298 K	303 K	308 K	313 K	318 K
x1 = 0.0001802, x3 = 8.8e-07	0.095 ± 0.06	0.094 ± 0.06	0.096 ± 0.06	0.101 ± 0.06	0.101 ± 0.06
x1 = 0.0001802, x3 = 1.79e-06	0.096 ± 0.06	0.095 ± 0.06	0.097 ± 0.06	0.101 ± 0.06	0.101 ± 0.06
x1 = 0.0001802, x3 = 2.67e-06	0.097 ± 0.06	0.095 ± 0.06	0.097 ± 0.06	0.102 ± 0.06	0.102 ± 0.06
x1 = 0.0001802, x3 = 3.56e-06	0.097 ± 0.06	0.096 ± 0.06	0.098 ± 0.06	0.102 ± 0.06	0.102 ± 0.06
x1 = 0.0001802, x3 = 4.42e-06	0.098 ± 0.06	0.096 ± 0.06	0.098 ± 0.06	0.103 ± 0.06	0.102 ± 0.06
x1 = 0.0001802, x3 = 5.31e-06	0.098 ± 0.06	0.096 ± 0.06	0.098 ± 0.06	0.103 ± 0.06	0.103 ± 0.06
x1 = 0.0001802, x3 = 6.17e-06	0.098 ± 0.06	0.097 ± 0.06	0.099 ± 0.06	0.104 ± 0.06	0.103 ± 0.06
x1 = 0.0001802, x3 = 7.02e-06	0.098 ± 0.06	0.097 ± 0.06	0.099 ± 0.06	0.104 ± 0.06	0.103 ± 0.06
x1 = 0.0001802, x3 = 7.87e-06	0.098 ± 0.06	0.097 ± 0.06	0.099 ± 0.06	0.104 ± 0.06	0.103 ± 0.06
x1 = 0.0001802, x3 = 8.72e-06	0.098 ± 0.06	0.097 ± 0.06	0.1 ± 0.06	0.104 ± 0.06	0.104 ± 0.06
x1 = 0.0001802, x3 = 9.57e-06	0.099 ± 0.06	–	–	–	–
x1 = 0.0001802, x3 = 1.04e-05	0.099 ± 0.06	0.098 ± 0.06	0.1 ± 0.06	0.105 ± 0.06	0.104 ± 0.06
x1 = 0.0001802, x3 = 1.124e-05	0.099 ± 0.06	–	–	–	–
x1 = 0.0001802, x3 = 1.206e-05	0.099 ± 0.06	0.098 ± 0.06	0.1 ± 0.06	0.105 ± 0.06	0.104 ± 0.06
x1 = 0.0001802, x3 = 1.289e-05	0.099 ± 0.06	–	–	–	–
x1 = 0.0001802, x3 = 1.37e-05	0.099 ± 0.06	0.098 ± 0.06	0.1 ± 0.06	0.105 ± 0.06	0.104 ± 0.06
x1 = 0.0001802, x3 = 1.451e-05	0.099 ± 0.06	–	–	–	–
x1 = 0.0001802, x3 = 1.532e-05	0.1 ± 0.06	0.099 ± 0.06	0.101 ± 0.06	0.105 ± 0.06	0.105 ± 0.06
x1 = 0.0001802, x3 = 1.612e-05	0.1 ± 0.06	–	–	–	–
x1 = 0.0001802, x3 = 1.691e-05	0.1 ± 0.06	0.099 ± 0.06	0.101 ± 0.06	0.106 ± 0.06	0.105 ± 0.06
x1 = 0.0001802, x3 = 1.77e-05	0.1 ± 0.06	–	–	–	–
x1 = 0.0001802, x3 = 1.848e-05	0.1 ± 0.06	0.099 ± 0.06	0.101 ± 0.06	0.106 ± 0.06	0.105 ± 0.06
x1 = 0.0001802, x3 = 1.928e-05	0.1 ± 0.06	–	–	–	–
x1 = 0.0001802, x3 = 2.005e-05	0.1 ± 0.06	0.099 ± 0.06	0.101 ± 0.06	0.106 ± 0.06	0.105 ± 0.06
x1 = 0.0001802, x3 = 2.081e-05	0.1 ± 0.06	–	–	–	–
x1 = 0.0001802, x3 = 2.159e-05	0.1 ± 0.06	0.1 ± 0.06	0.102 ± 0.06	0.106 ± 0.06	0.105 ± 0.06
x1 = 0.0001802, x3 = 2.234e-05	0.101 ± 0.06	–	–	–	–
x1 = 0.0001802, x3 = 2.31e-05	0.101 ± 0.06	0.1 ± 0.06	0.102 ± 0.06	0.107 ± 0.06	0.106 ± 0.06
x1 = 0.0001802, x3 = 2.386e-05	0.101 ± 0.06	–	–	–	–
x1 = 0.0001802, x3 = 2.46e-05	0.101 ± 0.06	0.1 ± 0.06	0.102 ± 0.06	0.107 ± 0.06	0.106 ± 0.06
x1 = 0.0001802, x3 = 2.534e-05	0.101 ± 0.06	–	–	–	–
x1 = 0.0001802, x3 = 2.608e-05	–	0.1 ± 0.06	0.102 ± 0.06	0.107 ± 0.06	0.106 ± 0.06
x1 = 0.0001802, x3 = 2.754e-05	–	0.101 ± 0.06	0.103 ± 0.06	0.107 ± 0.06	0.107 ± 0.06
x1 = 0.0001802, x3 = 2.9e-05	–	0.101 ± 0.06	0.103 ± 0.06	0.108 ± 0.06	0.107 ± 0.06
x1 = 0.0001802, x3 = 3.043e-05	–	0.101 ± 0.06	0.103 ± 0.06	0.108 ± 0.06	0.107 ± 0.06
x1 = 0.0001802, x3 = 3.184e-05	–	0.101 ± 0.06	0.103 ± 0.06	0.108 ± 0.06	0.107 ± 0.06
x1 = 0.0001802, x3 = 3.324e-05	–	0.101 ± 0.06	0.103 ± 0.06	0.108 ± 0.06	0.107 ± 0.06
x1 = 0.0001802, x3 = 3.462e-05	–	0.101 ± 0.06	0.104 ± 0.06	0.109 ± 0.06	0.108 ± 0.06
x1 = 0.0001802, x3 = 3.599e-05	–	0.102 ± 0.06	0.104 ± 0.06	0.109 ± 0.06	0.108 ± 0.06
x1 = 0.0001802, x3 = 3.732e-05	–	0.102 ± 0.06	0.104 ± 0.06	0.109 ± 0.06	0.108 ± 0.06
x1 = 0.0001802, x3 = 3.866e-05	–	0.102 ± 0.06	0.104 ± 0.06	0.109 ± 0.06	0.108 ± 0.06
x1 = 0.0001802, x3 = 3.998e-05	–	0.102 ± 0.06	0.105 ± 0.06	0.11 ± 0.06	0.109 ± 0.06

CC(C)O + O + CCCCCCCCCCCCOS(=O)(=O)[O-].[Na+]
298 K, 100 kPa, frequency 0.001 MHz
Details	electrical conductivity [S/m]
x1 = 0.01509, x3 = 0	0.00013
x1 = 0.02546, x2 = 0.9745	0.00014

CCCCCCCCn1cc[n+](C)c1.[Br-] + O + CCCCCCCCn1cc[n+](C)c1.F[B-](F)(F)F
298.15 K, 101 kPa
Details	electrical conductivity [S/m]
x1 = 0.0002342, x3 = 5.406e-05	0.15 ± 0.01
x1 = 0.001691, x3 = 0.0003242	0.8 ± 0.02
x1 = 0.002265, x3 = 0.0004503	0.99 ± 0.02
x1 = 0.002803, x3 = 0.0005403	1.11 ± 0.02
x1 = 0.00343, x3 = 0.0006663	1.24 ± 0.03
x1 = 0.004413, x3 = 0.0008642	1.37 ± 0.03
x1 = 0.004913, x3 = 0.0009541	1.45 ± 0.03

CCCCCCCCn1cc[n+](C)c1.[Br-] + O + CCCCCC[n+]1ccn(C)c1.[Br-]
electrical conductivity, 101.3 kPa
Details	x2 = 0.8977, x1 = 0.04147	x2 = 0.8977, x1 = 0.06092	x2 = 0.8993, x1 = 0.02123	x2 = 0.8993, x1 = 0.07955	x2 = 0.9473, x1 = 0.02113	x2 = 0.9473, x1 = 0.03155	x2 = 0.9477, x1 = 0.01078	x2 = 0.9477, x1 = 0.04155
293.15 K	3.55 S/m and 3.56 S/m and 3.57 S/m	3.41 S/m and 3.44 S/m (2×)	3.68 S/m and 3.69 S/m	3.3 S/m and 3.31 S/m and 3.32 S/m	3.98 S/m and 4 S/m and 4.01 S/m	3.83 S/m and 3.85 S/m and 3.87 S/m	4.14 S/m (2×) and 4.16 S/m	3.7 S/m and 3.71 S/m and 3.72 S/m
298.15 K	4.11 S/m and 4.12 S/m	3.95 S/m and 3.96 S/m and 3.98 S/m	4.25 S/m and 4.26 S/m	3.81 S/m and 3.83 S/m and 3.84 S/m	4.56 S/m and 4.6 S/m and 4.61 S/m	4.4 S/m and 4.44 S/m (2×)	4.74 S/m and 4.76 S/m and 4.77 S/m	4.25 S/m and 4.26 S/m and 4.28 S/m
303.15 K	4.67 S/m and 4.68 S/m and 4.7 S/m	4.51 S/m and 4.52 S/m and 4.54 S/m	4.85 S/m (2×) and 4.86 S/m	4.36 S/m and 4.37 S/m and 4.38 S/m	5.21 S/m and 5.22 S/m and 5.24 S/m	5.01 S/m and 5.03 S/m and 5.05 S/m	5.39 S/m and 5.4 S/m and 5.42 S/m	4.84 S/m and 4.86 S/m and 4.87 S/m

CCOP(=O)([O-])OCC.CC[n+]1ccn(C)c1 + O + CS(C)=O
viscosity [mPa·s], 100 kPa
Details	293.15 K	303.15 K	313.15 K	323.15 K
x2 = 0.004, x3 = 0.497	–	53 ± 10	–	–
x2 = 0.005, x3 = 0.768	–	–	9.6 ± 3.4	7.1 ± 2
x2 = 0.008, x3 = 0.886	5.9	–	3.5 ± 1.5	2.9 ± 1
